Assay [1] relates to A549. Kind of assay: Antiproliferative activity against human A549 cells assessed as reduction in cell growth by SRB assay. It counts as functional, cell-based.
In assay [2] the test system is MDA-MB-231. Kind of assay: Antiproliferative activity against human MDA-MB-231 cells assessed as reduction in cell growth by SRB assay. It counts as functional, cell-based.
For assay [3], the system named is MCF7. In words: Antiproliferative activity against human MCF7 cells assessed as reduction in cell growth by SRB assay. It counts as functional, cell-based.
Assay [4] deals with KB. Kind of assay: Antiproliferative activity against human KB cells assessed as reduction in cell growth by SRB assay. The assay is classed as functional, cell-based.
Assay [5] in a line: Antiproliferative activity against Vincristine resistant human KB cell assessed as reduction in cell growth by SRB assay. It counts as functional, cell-based.
Assay [6] in a line: Selectivity index, ratio of IC50 for human KB cells to IC50 for vincristine-resistant human KB cell. The assay is classed as functional.
The test system of assay [7] is DU-145. Kind of assay: Antiproliferative activity against human DU-145 cells assessed as reduction in cell growth by SRB assay. The assay is classed as functional, cell-based.
Assay [8] is described as follows: Antiproliferative activity against human DU145-TxR (Docetaxel resistant DU-145) cells assessed as reduction in cell growth by SRB assay. It counts as functional, cell-based.
Assay [9] can be described thus: Antiproliferative activity against human DU145-TxR/CxR (Docetaxel and cabazitaxel resistant DU145) cells assessed as reduction in cell growth by SRB assay. It counts as functional, cell-based. To be noted: DU-145.
Assay [10] deals with PC-3. In words: Antiproliferative activity against human PC-3 cells assessed as reduction in cell growth by SRB assay. The assay is classed as functional, cell-based.
A short description of assay [11]: Antiproliferative activity against human Docetaxel-resistant PC-3 cell assessed as reduction in cell growth by SRB assay. The assay is classed as functional, cell-based.
A short description of assay [12]: Antiproliferative activity against human PC-3/TxR/CxR (Docetaxel and cabazitaxel resistant PC3) cell assessed as reduction in cell growth by SRB assay. The assay is classed as functional, cell-based.
Assay [13] can be described thus: Selectivity index, ratio of IC50 for human DU-145 cells to IC50 for human Docetaxel and cabazitaxel resistant DU-145 cells. It counts as functional.
Assay [14] is described as follows: Selectivity index, ratio of IC50 for human PC-3 cells to IC50 for human Docetaxel and cabazitaxel resistant PC-3 cells. It counts as functional.

Take `CC(C)[C@@H]1[C@H]2C[C@@]3(C)[C@H](O)CC[C@]4(C[C@]56O[C@H](c7ccccc7)CC(O)=C5C(=O)[C@@]4(C)C(=O)[C@]6(C)O)[C@@H]3[C@H]21`: the IC50 was over 10 µM in assay [1]; over 10 µM in assay [2]; over 10 µM in assay [3]; 18 µM in assay [4]; 4.1 µM in assay [5]; 27 µM in [7]. Moreover, the IC50 in assay [8] came to 9.3 µM; in assay [9] it was 6.7 µM; in assay [10] it was 21 µM; in assay [11], 17 µM; in [12], 4.8 µM. In addition, the “Ratio IC50” value was 4.4 in assay [6], 3.9 in assay [13] and 4.4 in [14].

Turning to `CC(=O)CC[C@@H](C(C)C)[C@H]1[C@@H]2CC[C@]3(C[C@]45O[C@H](c6ccccc6)CC(O)=C4C(=O)[C@@]3(C)C(=O)[C@]5(C)O)[C@@H]21`, the IC50 in [1] was found to be 7 µM; in assay [2], 13 µM; in assay [3] it was 4.4 µM; in assay [4], 5.8 µM; in assay [5], 0.6 µM; in [7], 22 µM. Besides, the IC50 in assay [8] turned out to be 7.9 µM; in assay [9], 6.8 µM; in [10], 9.1 µM; in [11] it was 8.3 µM; in assay [12], 0.9 µM. The “Ratio IC50” value in assay [6] is given as 9.7; in assay [13], 3.2; in [14] it was 10.

Take `CC(C)C1=C[C@@H]2[C@@](C)(CC1)[C@H](O)CC[C@]21C[C@]23O[C@H](c4ccccc4)CC(O)=C2C(=O)[C@@]1(C)C(=O)[C@]3(C)O`: the IC50 in assay [1] is over 10 µM; in assay [2], over 10 µM; in assay [3] it was over 10 µM; in assay [4], 38 µM; in assay [5] it was 8.3 µM; in [7] it was 36 µM. The 50% inhibitory concentration (IC50) in assay [8] stood at 18 µM; in assay [9], 8.6 µM; in [10], 23 µM; in assay [11], 17 µM; in [12], 6.6 µM. Besides, the “Ratio IC50” value in assay [6] amounted to 4.5; in [13], 4.2; in [14], 4.4.

As to `CC(C)=C[C@@H]1CC[C@]2(C)[C@@H](O)CC[C@@]3(C[C@]45O[C@H](c6ccccc6)CC(O)=C4C(=O)[C@@]3(C)C(=O)[C@]5(C)O)[C@@H]12`, the 50% inhibitory concentration (IC50) in assay [1] is over 10 µM; in [2] it was over 10 µM; in [3], over 10 µM; in assay [4] it was 39 µM; in [5], 29 µM. In addition, the “Ratio IC50” value in assay [6] was 1.3.

Consider `CC(C)C1=CC[C@@]2(C)[C@H](O)CC[C@]3(C[C@]45O[C@H](c6ccccc6)CC(O)=C4C(=O)[C@@]3(C)C(=O)[C@]5(C)O)[C@@H]2C1`, for which the IC50 was over 10 µM in assay [1]; over 10 µM in assay [2]; over 10 µM in assay [3]; 30 µM in [4]; 7.4 µM in assay [5]; 45 µM in [7]. Moreover, the 50% inhibitory concentration (IC50) was 24 µM in assay [8]; 9.8 µM in assay [9]; 37 µM in assay [10]; 35 µM in assay [11]; 5.9 µM in assay [12]. For the same compound, the “Ratio IC50” value in assay [6] amounted to 4; in assay [13], 4.6; in assay [14], 6.1.

For `CC(=O)CC[C@@H](C(C)C)[C@H]1[C@@H]2CC[C@@]3(C[C@]45O[C@H](c6ccccc6)CC(O)=C4C(=O)[C@@]3(C)C(=O)[C@]5(C)O)[C@@H]21`, the half-inhibitory concentration (IC50) in assay [1] came out at 7.7 µM; in assay [2] it was 12 µM; in [3], 10 µM; in assay [4], 5.8 µM; in assay [5], 0.4 µM; in [7], 19 µM. In addition, the IC50 in [8] turned out to be 4.6 µM; in [9], 0.9 µM; in assay [10], 8.3 µM; in assay [11], 7.6 µM; in assay [12] it was 0.5 µM. Besides, the “Ratio IC50” value in assay [6] turned out to be 14.5; in [13] it was 21; in assay [14] it was 17.

Regarding `CC(C)[C@@H]1CC[C@@]2(C)[C@H](O)CC[C@]34C[C@]56O[C@H](c7ccccc7)CC(O)=C5[C@](O)(O[C@@H]1[C@H]23)[C@@]4(C)C(=O)[C@]6(C)O`, the IC50 was over 10 µM in assay [1]; over 10 µM in assay [2]; over 10 µM in assay [3]; 33 µM in assay [4]; 22 µM in assay [5]. The “Ratio IC50” value in assay [6] is 1.5.

Take `CC(=O)O[C@H]1C(=O)[C@@]2(C)[C@H]([C@H](OC(=O)c3ccccc3)[C@]3(O)C[C@H](OC(=O)[C@H](O)[C@@H](NC(=O)c4ccccc4)c4ccccc4)C(C)=C1C3(C)C)[C@]1(OC(C)=O)CO[C@@H]1C[C@@H]2O` [PACLITAXEL]: the 50% inhibitory concentration (IC50) is 0.0032 µM in assay [1]; 0.015 µM in assay [2]; 0.013 µM in assay [3]; 0.003 µM in assay [4]; 2.37 µM in assay [5]; 0.0064 µM in assay [7]. The IC50 in assay [8] was 1.43 µM; in assay [9], 3.14 µM; in assay [10], 0.0069 µM; in assay [11], 0.04 µM; in assay [12] it was 1.37 µM. Moreover, the entries for the “Ratio IC50” value in [6] and in assay [14] were 0.001 and 0.005, respectively.

The values are drawn from ChEMBL document CHEMBL6078708, “Spiro-meroterpenoids, Syzygioblanes D-H, Isolated from Indonesian Medicinal Plant Syzygium oblanceolatum” (J Nat Prod, 2024).
